# Laboratory results taken from PMC10051393, “Spectroscopic and Theoretical Analysis of the Interaction between Plasma Proteins and Phthalimide Analogs with Potential Medical Application” (Life, 2023).
# Experiments:
# [1] = test system: T1, α1-acid glycoprotein (AAG); orosomucoid; experiment: intrinsic Trp fluorescence quenching, excitation […] nm; format: binding; details: 297 K, pH 7.4, phosphate buffer, 1.0 μM protein; double-log
# T1 construct: gene ORM1; native commercial plasma glycoprotein (Sigma-Aldrich); ORM1 is the main plasma form
# [2] = biological target: T2, bovine serum albumin (BSA) (Bos taurus, UniProt P02769); experiment: as above; format: binding; details: 297 K, pH 7.4, phosphate buffer, 1.0 μM protein, no site marker; double-log
# T2 construct: gene ALB; native commercial protein (Sigma-Aldrich), untagged mature serum albumin
# T2 sequence (P02769 25-607): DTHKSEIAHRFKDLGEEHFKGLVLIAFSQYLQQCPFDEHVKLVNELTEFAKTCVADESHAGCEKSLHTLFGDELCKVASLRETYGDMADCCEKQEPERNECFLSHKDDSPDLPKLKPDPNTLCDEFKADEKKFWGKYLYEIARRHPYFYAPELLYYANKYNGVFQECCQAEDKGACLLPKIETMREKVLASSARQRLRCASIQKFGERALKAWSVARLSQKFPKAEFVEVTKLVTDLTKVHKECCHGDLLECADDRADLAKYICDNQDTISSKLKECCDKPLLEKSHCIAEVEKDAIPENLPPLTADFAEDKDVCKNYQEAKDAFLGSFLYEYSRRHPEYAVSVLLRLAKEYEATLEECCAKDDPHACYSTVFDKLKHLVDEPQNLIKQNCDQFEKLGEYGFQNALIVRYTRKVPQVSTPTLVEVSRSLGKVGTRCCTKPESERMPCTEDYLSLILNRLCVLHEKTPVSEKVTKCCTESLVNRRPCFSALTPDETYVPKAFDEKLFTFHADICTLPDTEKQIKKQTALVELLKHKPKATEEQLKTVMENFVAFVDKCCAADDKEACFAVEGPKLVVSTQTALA
Structure (SMILES),Binding Parameters / Kb × 10^3 [L.mol^-1] [1],Binding Parameters / Kb × 10^4 [L.mol^-1] [2]
"O=C1c2ccccc2C(=O)N1CN1CCN(c2ccccc2)CC1 [A, compound A]",4.27 × 10^3 L·mol^−1,1.89 × 10^4 L·mol^−1
"COc1ccccc1N1CCN(CN2C(=O)c3ccccc3C2=O)CC1 [B, compound B]",1.86 × 10^3 L·mol^−1,2.01 × 10^4 L·mol^−1
"O=C1c2ccccc2C(=O)N1CN1CCN(c2cccc(C(F)(F)F)c2)CC1 [C, compound C]",1.48 × 10^3 L·mol^−1,43.61 × 10^4 L·mol^−1
"O=C1c2ccccc2C(=O)N1CN1CCN(C(c2ccccc2)c2ccccc2)CC1 [D, compound D]",2.09 × 10^3 L·mol^−1,11.72 × 10^4 L·mol^−1
